{"source": "ChEMBL document CHEMBL5260850", "about": "“The exploration of aza-quinolines as hematopoietic prostaglandin D synthase (H-PGDS) inhibitors with low brain exposure” (Bioorg Med Chem, 2020)", "key": {"[1]": {"test": "AUC in Wistar Han rat at 100 mg/kg/day, po QD for 7 days", "type": "ADME, organism-based", "parameters": "time 7 day, dose 100 mg/kg/day, route po", "settings": "in vivo"}, "[2]": {"target": "Kappa-type opioid receptor (Homo sapiens) (UniProt P41145)", "sequence (P41145 whole entry)": "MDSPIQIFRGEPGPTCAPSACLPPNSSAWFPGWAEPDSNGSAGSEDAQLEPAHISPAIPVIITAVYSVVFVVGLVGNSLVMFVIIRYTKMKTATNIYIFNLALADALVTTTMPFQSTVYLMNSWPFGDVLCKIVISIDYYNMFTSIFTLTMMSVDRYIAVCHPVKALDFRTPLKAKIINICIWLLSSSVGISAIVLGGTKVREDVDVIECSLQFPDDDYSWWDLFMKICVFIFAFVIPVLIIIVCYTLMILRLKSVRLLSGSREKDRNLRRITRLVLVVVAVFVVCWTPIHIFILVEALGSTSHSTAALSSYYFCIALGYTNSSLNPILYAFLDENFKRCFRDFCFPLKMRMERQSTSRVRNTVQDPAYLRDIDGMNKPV", "settings": "dose <= 10000.0 nM", "description": "Inhibition of kappa opioid receptor (unknown origin) upto 10000 nM"}, "[3]": {"test": "AUC (0 to last) in mdx mouse administered orally 10 mins prior to unilateral eccentric contraction and QD for 43 days thereafter", "type": "ADME", "parameters": "time 43 day, route po", "settings": "in vivo, po"}, "[4]": {"target": "Aryl hydrocarbon receptor (Homo sapiens, UniProt P35869)", "sequence (P35869 whole entry)": "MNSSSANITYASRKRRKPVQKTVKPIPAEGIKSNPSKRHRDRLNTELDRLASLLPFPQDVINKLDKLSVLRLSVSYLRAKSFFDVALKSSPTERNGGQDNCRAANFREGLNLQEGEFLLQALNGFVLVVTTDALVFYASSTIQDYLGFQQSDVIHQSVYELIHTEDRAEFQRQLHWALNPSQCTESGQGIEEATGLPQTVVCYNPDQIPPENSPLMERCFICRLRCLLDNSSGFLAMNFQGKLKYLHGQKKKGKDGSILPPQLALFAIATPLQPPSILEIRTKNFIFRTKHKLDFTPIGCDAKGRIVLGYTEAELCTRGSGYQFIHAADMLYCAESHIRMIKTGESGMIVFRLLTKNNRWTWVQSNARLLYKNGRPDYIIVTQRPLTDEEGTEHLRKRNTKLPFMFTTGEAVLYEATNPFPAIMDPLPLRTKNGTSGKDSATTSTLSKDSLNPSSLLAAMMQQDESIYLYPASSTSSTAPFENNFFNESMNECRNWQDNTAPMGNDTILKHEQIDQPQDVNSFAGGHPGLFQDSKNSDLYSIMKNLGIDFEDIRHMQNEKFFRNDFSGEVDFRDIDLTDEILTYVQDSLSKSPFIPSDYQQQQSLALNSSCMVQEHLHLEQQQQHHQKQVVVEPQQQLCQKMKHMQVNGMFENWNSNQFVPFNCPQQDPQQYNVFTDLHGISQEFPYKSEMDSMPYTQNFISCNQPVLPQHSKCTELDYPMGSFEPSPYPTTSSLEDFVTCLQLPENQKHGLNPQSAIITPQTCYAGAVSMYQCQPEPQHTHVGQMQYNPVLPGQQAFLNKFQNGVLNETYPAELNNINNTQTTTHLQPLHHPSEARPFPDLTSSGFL", "test": "Inhibition of AhR (unknown origin) upto 10000 nM", "settings": "10 µM"}, "[5]": {"target": "Voltage-gated inwardly rectifying potassium channel KCNH2 (Homo sapiens, UniProt Q12809)", "test": "Inhibition of hERG"}, "[6]": {"target": "T1, Hematopoietic prostaglandin D synthase (Homo sapiens, UniProt O60760)", "T1 sequence (O60760 whole entry)": "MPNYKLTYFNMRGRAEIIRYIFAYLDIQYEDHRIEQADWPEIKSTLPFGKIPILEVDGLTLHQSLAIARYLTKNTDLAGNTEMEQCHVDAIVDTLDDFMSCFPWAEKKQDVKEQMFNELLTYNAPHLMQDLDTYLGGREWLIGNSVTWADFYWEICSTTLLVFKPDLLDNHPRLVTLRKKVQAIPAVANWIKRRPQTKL", "test": "Inhibition of human H-PGDS expressed in Escherichia coli BL21 DE3 cells assessed as reduction in PGD2 production using PGH2 as substrate by RapidFire High Throughput Mass spectrometry"}, "[7]": {"test": "Toxicity in dog assessed as clinical pathological changes by measuring increase in hepatobiliary parameters at 75 mg/kg/day, po QD for 4 days", "type": "organism-based, Canis lupus familiaris", "settings": "in vivo, 96 h, time 4 day"}, "[8]": {"test": "Toxicity in dog assessed as decrease in body temperature at 75 mg/kg/day, po QD for 4 days", "type": "organism-based, Canis lupus familiaris", "settings": "in vivo, 96 h, time 4 day"}, "[9]": {"test": "Terminal half life in mouse at 1 mg/kg, iv", "type": "ADME, organism-based", "settings": "in vivo, read-out: beta t1/2 (converted)"}, "[10]": {"test": "Dose normalized AUC in mouse at 3 mg/kg, po", "type": "ADME, organism-based", "parameters": "unit not given here", "settings": "in vivo"}, "[11]": {"test": "Toxicity in dog assessed as diffuse degenration/regeneration and multifocal erosion/ulcreation in small intestine and oesophagus at 75 mg/kg/day, po QD for 4 days by microscopic analysis", "type": "organism-based, Canis lupus familiaris", "settings": "in vivo, 96 h, time 4 day"}, "[12]": {"test": "Toxicity in Wistar Han rat assessed as morphological changes in heart at 30 mg/kg/day, po administered QD for 7 days by microscopic analysis", "type": "organism-based", "settings": "in vivo, 168 h, time 7 day"}, "[13]": {"test": "Cmax in Wistar Han rat at 30 mg/kg/day, po QD for 7 days", "type": "ADME, organism-based", "parameters": "time 7 day, dose 30 mg/kg/day, route po", "settings": "in vivo"}, "[14]": {"test": "Toxicity in dog assessed as deterioration in clinical condition at 75 mg/kg/day, po QD for 4 days", "type": "organism-based, Canis lupus familiaris", "settings": "in vivo, 96 h, time 4 day"}, "[15]": {"test": "AUC in Wistar Han rat at 30 mg/kg/day, po QD for 7 days", "type": "ADME, organism-based", "parameters": "dose 30 mg/kg/day, time 7 day, route po", "settings": "in vivo"}, "[16]": {"test": "Terminal half life in rat at 0.4 mg/kg, iv", "type": "ADME, organism-based", "settings": "in vivo, read-out: beta t1/2 (converted)"}, "[17]": {"test": "Clearance in dog at 0.5 mg/kg, iv", "type": "ADME, organism-based, Canis lupus familiaris", "settings": "in vivo"}, "[18]": {"test": "CNS toxicity in Wistar Han rat at 10 to 100 mg/kg/day, po QD for 7 days", "type": "organism-based", "settings": "in vivo, 168 h, dose 10-100 mg/kg/day, time 7 day"}, "[19]": {"species_on_record": "Mus musculus", "test": "animal or person", "settings": "C57BL/6J, Mast cell, po, 1.117 h"}, "[20]": {"test": "Toxicity in Wistar Han rat assessed as necrosis and inflammatory cell infiltrates in heart at 100 mg/kg/day, po administered QD for 7 days by microscopic analysis", "type": "organism-based", "settings": "in vivo, 168 h, time 7 day"}, "[21]": {"test": "Toxicity in Wistar Han rat assessed as proximal tubular vacuolation and hyaline cast formation in kidney at 100 mg/kg/day, po administered QD for 7 days by microscopic analysis", "type": "organism-based", "settings": "in vivo, 168 h, time 7 day"}, "[22]": {"system": "Mus musculus", "test": "Anti-inflammatory activity against C57BL6/N mouse assessed as EC50 required for reduction in LPS-induced PGD2 level in plasma administered orally with compound and 1 hr later treated with LPS and measured after 30 mins by LC-MS/MS analysis", "type": "functional, organism-based", "settings": "C57BL/6N"}, "[23]": {"test": "Toxicity in dog assessed as discoloration in small intestine and oesophagus at 75 mg/kg/day, po QD for 4 days by macroscopic analysis", "type": "organism-based, Canis lupus familiaris", "settings": "in vivo, 96 h, time 4 day"}, "[24]": {"test": "Volume of distribution at steady state in dog at 0.5 mg/kg, iv", "type": "ADME, organism-based, Canis lupus familiaris", "settings": "in vivo, read-out: Vdss"}, "[25]": {"test": "Toxicity in dog assessed as degeneration of zona glomerulosa in adrenal gland at 75 mg/kg/day, po QD for 4 days by microscopic analysis", "type": "organism-based, Canis lupus familiaris", "settings": "in vivo, 96 h, time 4 day"}, "[26]": {"test": "AUC (0 to last) in eccentric contraction-induced muscle injury C57BL/6N mouse model administered orally for 10 mins prior to unilateral eccentric contraction and QD for 16 days thereafter", "type": "ADME", "parameters": "time 16 day, route po", "settings": "in vivo, po"}, "[27]": {"target": "T1, Hematopoietic prostaglandin D synthase", "test": "Binding affinity to human H-PGDS expressed in Escherichia coli BL21 DE3 cells assessed as equilibrium dissociation constant by measuring changes in intrinsic tryptophan fluorescence in presence of glutathione by fluorescence based analysis"}, "[28]": {"target": "5-hydroxytryptamine receptor 1B (Homo sapiens) (UniProt P28222)", "sequence (P28222 whole entry)": "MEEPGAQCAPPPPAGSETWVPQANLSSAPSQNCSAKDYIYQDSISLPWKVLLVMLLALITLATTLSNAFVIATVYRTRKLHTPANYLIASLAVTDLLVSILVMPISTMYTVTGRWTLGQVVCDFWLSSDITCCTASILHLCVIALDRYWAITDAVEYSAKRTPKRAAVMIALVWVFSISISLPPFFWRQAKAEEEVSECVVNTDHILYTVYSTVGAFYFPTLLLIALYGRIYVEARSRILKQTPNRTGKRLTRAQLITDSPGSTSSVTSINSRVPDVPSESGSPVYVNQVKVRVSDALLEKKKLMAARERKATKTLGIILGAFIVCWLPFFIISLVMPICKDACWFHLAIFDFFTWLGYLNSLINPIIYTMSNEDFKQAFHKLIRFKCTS", "settings": "dose <= 10000.0 nM", "description": "Inhibition of 5-HT1B receptor (unknown origin) upto 10000 nM"}, "[29]": {"target": "Potassium voltage-gated channel subfamily KQT member 1 (Homo sapiens, UniProt P51787)", "sequence (P51787 whole entry)": "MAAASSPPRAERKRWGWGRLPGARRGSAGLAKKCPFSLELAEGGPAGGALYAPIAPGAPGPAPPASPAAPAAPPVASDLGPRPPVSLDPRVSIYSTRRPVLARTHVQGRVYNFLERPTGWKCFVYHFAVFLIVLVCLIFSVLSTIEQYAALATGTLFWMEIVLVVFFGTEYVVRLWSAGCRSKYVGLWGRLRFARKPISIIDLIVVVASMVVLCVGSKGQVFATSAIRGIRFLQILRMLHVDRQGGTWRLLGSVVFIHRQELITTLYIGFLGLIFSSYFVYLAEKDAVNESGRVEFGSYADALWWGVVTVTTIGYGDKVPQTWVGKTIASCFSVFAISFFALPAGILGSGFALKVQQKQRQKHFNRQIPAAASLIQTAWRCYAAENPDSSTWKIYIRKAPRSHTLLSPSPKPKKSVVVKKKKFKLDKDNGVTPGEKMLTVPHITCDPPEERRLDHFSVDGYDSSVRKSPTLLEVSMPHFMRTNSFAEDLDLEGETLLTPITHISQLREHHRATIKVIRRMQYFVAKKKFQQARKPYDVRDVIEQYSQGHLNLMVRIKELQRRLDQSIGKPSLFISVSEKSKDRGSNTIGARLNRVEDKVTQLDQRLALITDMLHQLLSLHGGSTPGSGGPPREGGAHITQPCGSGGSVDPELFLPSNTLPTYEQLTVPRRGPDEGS", "test": "Inhibition of Kv7.1 channel (unknown origin) upto 10000 nM", "settings": "10 µM"}, "[30]": {"target": "Substance-P receptor (Homo sapiens) (UniProt P25103)", "sequence (P25103 whole entry)": "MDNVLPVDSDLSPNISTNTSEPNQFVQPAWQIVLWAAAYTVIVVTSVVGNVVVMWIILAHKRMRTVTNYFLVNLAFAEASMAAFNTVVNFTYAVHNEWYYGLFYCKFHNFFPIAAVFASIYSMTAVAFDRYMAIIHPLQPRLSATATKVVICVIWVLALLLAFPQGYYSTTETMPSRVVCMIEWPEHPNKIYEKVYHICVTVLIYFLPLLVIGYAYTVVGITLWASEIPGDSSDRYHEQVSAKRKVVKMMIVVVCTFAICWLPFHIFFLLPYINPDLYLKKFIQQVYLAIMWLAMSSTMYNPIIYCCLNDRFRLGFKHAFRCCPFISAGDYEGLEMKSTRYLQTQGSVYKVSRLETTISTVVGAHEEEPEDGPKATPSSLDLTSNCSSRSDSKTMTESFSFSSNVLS", "settings": "dose <= 10000.0 nM", "description": "Inhibition of tachykinin NK1 receptor (unknown origin) upto 10000 nM"}, "[31]": {"target": "D(1A) dopamine receptor (Homo sapiens) (UniProt P21728)", "sequence (P21728 whole entry)": "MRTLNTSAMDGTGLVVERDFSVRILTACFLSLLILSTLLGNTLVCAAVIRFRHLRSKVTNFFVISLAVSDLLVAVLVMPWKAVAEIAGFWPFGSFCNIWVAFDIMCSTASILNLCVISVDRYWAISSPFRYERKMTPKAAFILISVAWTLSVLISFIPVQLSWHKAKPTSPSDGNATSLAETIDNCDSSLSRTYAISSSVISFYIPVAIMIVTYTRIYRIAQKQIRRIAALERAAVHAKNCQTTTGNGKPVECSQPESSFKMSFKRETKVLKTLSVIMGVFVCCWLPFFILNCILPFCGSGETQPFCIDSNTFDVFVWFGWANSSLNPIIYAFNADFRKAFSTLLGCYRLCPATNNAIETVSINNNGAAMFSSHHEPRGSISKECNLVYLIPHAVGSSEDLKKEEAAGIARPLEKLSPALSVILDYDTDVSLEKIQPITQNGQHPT", "settings": "dose <= 10000.0 nM", "description": "Inhibition of dopamine D1 receptor (unknown origin) upto 10000 nM"}, "[32]": {"test": "Toxicity in rat assessed as tolerance at 300 mg/kg, po administered as single dose", "type": "organism-based", "settings": "in vivo"}, "[33]": {"test": "Oral bioavailability in dog at 1 mg/kg", "type": "ADME, organism-based, Canis lupus familiaris", "settings": "in vivo"}, "[34]": {"test": "Toxicity in dog assessed as decreased cortical lymphoid cellularity in thymus at 75 mg/kg/day, po QD for 4 days by microscopic analysis", "type": "organism-based, Canis lupus familiaris", "settings": "in vivo, 96 h, time 4 day"}, "[35]": {"target": "Prostaglandin-H2 D-isomerase (Homo sapiens, UniProt P41222)", "sequence (P41222 whole entry)": "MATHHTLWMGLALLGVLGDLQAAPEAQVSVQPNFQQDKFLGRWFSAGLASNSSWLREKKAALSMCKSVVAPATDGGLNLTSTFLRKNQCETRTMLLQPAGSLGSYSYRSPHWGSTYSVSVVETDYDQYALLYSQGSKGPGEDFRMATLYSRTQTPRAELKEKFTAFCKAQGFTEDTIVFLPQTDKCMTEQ", "test": "Inhibition of L-PGDS (unknown origin)"}, "[36]": {"system": "Mus musculus", "test": "Anti-inflammatory activity against C57BL6/N mouse assessed as reduction in LPS-induced PGD2 level in skeletal muscle administered orally with compound and 1 hr later treated with LPS and measured after 30 mins by LC-MS/MS analysis", "type": "functional", "settings": "route po, time 1.5 hrs"}, "[37]": {"test": "Oral bioavailability in rat at 2.4 mg/kg", "type": "ADME, organism-based", "settings": "in vivo"}, "[38]": {"target": "Cannabinoid receptor 1 (Homo sapiens) (UniProt P21554)", "sequence (P21554 whole entry)": "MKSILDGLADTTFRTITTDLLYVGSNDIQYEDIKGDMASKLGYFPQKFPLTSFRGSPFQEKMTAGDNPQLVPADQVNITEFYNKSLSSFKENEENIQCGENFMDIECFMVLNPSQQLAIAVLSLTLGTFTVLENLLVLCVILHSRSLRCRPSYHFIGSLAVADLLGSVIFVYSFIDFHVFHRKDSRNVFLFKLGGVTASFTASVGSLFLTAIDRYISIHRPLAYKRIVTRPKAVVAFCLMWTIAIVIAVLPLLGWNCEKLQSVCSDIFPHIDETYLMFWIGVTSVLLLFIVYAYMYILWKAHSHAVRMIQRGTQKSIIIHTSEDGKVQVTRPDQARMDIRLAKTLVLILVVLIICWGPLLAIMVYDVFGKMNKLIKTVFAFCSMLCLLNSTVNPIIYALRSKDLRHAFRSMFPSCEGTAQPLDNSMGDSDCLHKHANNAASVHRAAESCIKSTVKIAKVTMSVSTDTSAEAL", "settings": "dose <= 10000.0 nM", "description": "Inhibition of CB1 receptor (unknown origin) upto 10000 nM"}, "[39]": {"target": "5-hydroxytryptamine receptor 2B (Homo sapiens) (UniProt P41595)", "sequence (P41595 whole entry)": "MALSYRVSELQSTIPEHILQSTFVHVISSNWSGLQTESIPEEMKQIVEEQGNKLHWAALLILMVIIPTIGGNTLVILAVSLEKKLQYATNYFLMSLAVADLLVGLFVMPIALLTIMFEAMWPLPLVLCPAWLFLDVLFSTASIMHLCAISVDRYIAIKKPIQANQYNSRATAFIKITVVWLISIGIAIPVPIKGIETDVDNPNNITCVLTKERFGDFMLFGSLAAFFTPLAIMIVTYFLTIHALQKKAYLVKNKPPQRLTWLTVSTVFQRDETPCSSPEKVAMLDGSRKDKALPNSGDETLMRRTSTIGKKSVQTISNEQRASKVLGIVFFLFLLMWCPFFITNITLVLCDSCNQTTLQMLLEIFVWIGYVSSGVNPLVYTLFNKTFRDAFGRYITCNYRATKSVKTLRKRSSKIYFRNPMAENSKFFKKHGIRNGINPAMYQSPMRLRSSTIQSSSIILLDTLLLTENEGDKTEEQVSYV", "settings": "dose <= 10000.0 nM", "description": "Inhibition of 5-HT2B receptor (unknown origin) upto 10000 nM"}, "[40]": {"test": "Cmax in dog at 75 mg/kg/day, po QD for 4 days", "type": "ADME, organism-based, Canis lupus familiaris", "parameters": "dose 75 mg/kg/day, time 4 day, route po", "settings": "in vivo"}, "[41]": {"test": "Toxicity in dog assessed as hemorrhage of zona fasciculata in adrenal gland at 75 mg/kg/day, po QD for 4 days by microscopic analysis", "type": "organism-based, Canis lupus familiaris", "settings": "in vivo, 96 h, time 4 day"}, "[42]": {"test": "AUC in dog at 75 mg/kg/day, po QD for 4 days", "type": "ADME, organism-based, Canis lupus familiaris", "parameters": "time 4 day, dose 75 mg/kg/day, route po", "settings": "in vivo"}, "[43]": {"target": "D(2) dopamine receptor (Homo sapiens) (UniProt P14416)", "sequence (P14416 whole entry)": "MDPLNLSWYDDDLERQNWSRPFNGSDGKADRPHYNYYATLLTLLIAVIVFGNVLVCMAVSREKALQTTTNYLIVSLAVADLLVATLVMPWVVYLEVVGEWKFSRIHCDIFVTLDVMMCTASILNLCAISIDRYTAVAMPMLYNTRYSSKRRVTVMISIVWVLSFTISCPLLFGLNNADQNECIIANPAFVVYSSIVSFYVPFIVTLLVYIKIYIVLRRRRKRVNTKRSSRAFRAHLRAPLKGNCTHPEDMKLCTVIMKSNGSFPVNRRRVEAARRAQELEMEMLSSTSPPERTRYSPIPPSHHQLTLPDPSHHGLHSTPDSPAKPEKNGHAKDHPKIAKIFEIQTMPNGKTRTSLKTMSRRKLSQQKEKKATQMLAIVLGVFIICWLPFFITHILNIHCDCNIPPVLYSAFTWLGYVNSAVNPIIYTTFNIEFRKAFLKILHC", "settings": "dose <= 10000.0 nM", "description": "Inhibition of dopamine D2 receptor (unknown origin) upto 10000 nM"}, "[44]": {"test": "Clearance in rat at 0.4 mg/kg, iv", "type": "ADME, organism-based", "settings": "in vivo"}}, "note": "Activity calls are given as the source filed them. The rule behind the calls is not given here.", "data": [{"smiles": "CC(C)(O)[C@H]1CC[C@H](NC(=O)c2cnc3nc(C4CC4)ccc3c2)CC1", "values": [{"measurement": "AUC at 168 h", "setting": "[1]", "value": 820, "unit": "µg·h/mL"}, {"measurement": "inhibition", "setting": "[2]", "value": "inactive"}, {"measurement": "AUC(0-t) at 1032 h", "setting": "[3]", "value": 1.1, "unit": "µg·h/mL"}, {"measurement": "inhibition (INH)", "setting": "[4]", "value": "Not Active"}, {"measurement": "IC50", "setting": "[5]", "value": "> 80000", "unit": "nM"}, {"measurement": "IC50", "setting": "[6]", "value": 9.4, "unit": "nM"}, {"measurement": "Activity", "setting": "[7]", "value": "Toxic"}, {"measurement": "Activity", "setting": "[8]", "value": "Toxic"}, {"measurement": "half-life", "setting": "[9]", "value": 2.9, "unit": "h"}, {"measurement": "AUC/dose", "setting": "[10]", "value": 1320}, {"measurement": "Activity", "setting": "[11]", "value": "Toxic"}, {"measurement": "Activity", "setting": "[12]", "value": "Non-Toxic"}, {"measurement": "Cmax", "setting": "[13]", "value": 24, "unit": "µg/mL"}, {"measurement": "Activity", "setting": "[14]", "value": "Toxic"}, {"measurement": "AUC at 168 h", "setting": "[15]", "value": 410, "unit": "µg·h/mL"}, {"measurement": "half-life", "setting": "[16]", "value": 5.1, "unit": "h"}, {"measurement": "clearance", "setting": "[17]", "value": 1.9, "unit": "mL/min/kg"}, {"measurement": "Activity", "setting": "[18]", "value": "Non-Toxic"}, {"measurement": "ED50", "setting": "[19]", "value": 0.009, "unit": "mg/kg"}, {"measurement": "Activity", "setting": "[20]", "value": "Toxic"}, {"measurement": "Activity", "setting": "[21]", "value": "Toxic"}, {"measurement": "EC50", "setting": "[22]", "value": 2.6, "unit": "nM"}, {"measurement": "Activity", "setting": "[23]", "value": "Toxic"}, {"measurement": "Vd", "setting": "[24]", "value": 1, "unit": "L/kg"}, {"measurement": "Activity", "setting": "[25]", "value": "Toxic"}, {"measurement": "AUC(0-t) at 384 h", "setting": "[26]", "value": 5.3, "unit": "µg·h/mL"}, {"measurement": "Kd", "setting": "[27]", "value": 0.24, "unit": "nM"}, {"measurement": "inhibition", "setting": "[28]", "value": "inactive"}, {"measurement": "inhibition (INH)", "setting": "[29]", "value": "Not Active"}, {"measurement": "inhibition", "setting": "[30]", "value": "inactive"}, {"measurement": "inhibition", "setting": "[31]", "value": "inactive"}, {"measurement": "Activity", "setting": "[32]", "value": "Non-Toxic"}, {"measurement": "bioavailability", "setting": "[33]", "value": 92, "unit": "%"}, {"measurement": "Activity", "setting": "[34]", "value": "Toxic"}, {"measurement": "IC50", "setting": "[35]", "value": "> 10000", "unit": "nM"}, {"measurement": "ED50", "setting": "[36]", "value": 0.0138, "unit": "mg/kg"}, {"measurement": "bioavailability", "setting": "[37]", "value": 100, "unit": "%"}, {"measurement": "inhibition", "setting": "[38]", "value": "inactive"}, {"measurement": "inhibition", "setting": "[39]", "value": "inactive"}, {"measurement": "Cmax", "setting": "[40]", "value": 210, "unit": "µg/mL"}, {"measurement": "Activity", "setting": "[41]", "value": "Toxic"}, {"measurement": "AUC at 96 h", "setting": "[42]", "value": 3600, "unit": "µg·h/mL"}, {"measurement": "inhibition", "setting": "[43]", "value": "inactive"}, {"measurement": "clearance", "setting": "[44]", "value": 4.5, "unit": "mL/min/kg"}]}]}
